Where two headings read alike, the source gives them in different places.
Tests used:
ATP synthase = system: T1, ATP synthase; experiment: Succinate-driven ATP synthesis by SMPs; assay type: biochemical, bovine; conditions: 15 mM buformin, 100 mM metformin; others up to concentrations above IC50 for ATP hydrolysis; corrected for succinate oxidation
T1 construct: from tissue; host or cells: SMPs from bovine heart mitochondria
Source text: Data points are means±S.E.M., n=3, as a percentage of ATP production in the absence of biguanide. […] (●).

[1] = system: T2, isolated F1 domain of ATPase; experiment: ATP hydrolysis by the isolated F1 domain; assay type: biochemical, bovine; conditions: at the SMP IC50 values
T2 construct: from tissue; host or cells: bovine mitochondria
Method: Complex I was prepared from Bos taurus (bovine) heart mitochondria, Pichia pastoris and Escherichia coli, as described previously. SMPs (submitochondrial particles) and mitochondrial membranes were prepared from bovine heart mitochondria. […] Mitochondria were isolated from rat liver by the method of Chappell and Hansford. F1FO-ATP synthase and the F1 domain were isolated from bovine mitochondria as described previously using a HiLoad Superdex 200-PG column and omitting azide and 2-mercaptoethanol.

[2] = system: Hep G2 hepatocarcinoma cells; experiment: Rotenone-sensitive OCR and ECAR of Hep G2 cells (Seahorse); assay type: cell-based, human; conditions: for effect on rotenone-sensitive OCR or ECAR: concentration equal to complex I IC50/10, 6 h of treatment; for IC50: Hep G2 cells, 6 h exposure, read-out: cellular IC50, rotenone-sensitive OCR
Method: OCRs (oxygen consumption rates) and ECARs (extracellular acidification rates) were measured in a Seahorse extracellular flux analyser; 200 nM rotenone was used to inhibit complex I where stated. To calculate the normalized rotenone-sensitive OCR rates, the rotenone-insensitive rates (determined at the end of the experiment) were subtracted and the traces normalized to 100% before biguanide addition. ECAR data were normalized to 100% before biguanide addition. […] Isolated rat liver mitochondria were plated at 20 μg per well in the same buffer but without PMP. They were adhered to the plate by centrifugation at 2000 g for 20 min at 4°C and measurements performed and normalized (after temperature equilibration) as for permeabilized cells but at 32°C.
(§1) Biguanides are positively charged so they are expected to accumulate in the mitochondria of cells in response to the potential difference across the inner membrane (the potential difference is the ‘charge’ component of the protonmotive force). Each 60 mV of potential difference drives the concentration of the positive ion to 10-times higher inside the mitochondrion than outside. For a typical potential difference of 120–150 mV the concentration inside the mitochondrion could therefore be 100 to 300-times higher than outside. […] The OCRs were normalized to their values before biguanide addition, and monitored throughout the experiment; rotenone-insensitive rates were subtracted, and all rates after 6 h compared with a biguanide-free control.

complex III = experiment: Complex III inhibition (succinate:cytochrome c oxidoreduction); conditions: read-out: IC50 on complex III
[3] = biological target: T3, complex I (NADH:ubiquinone oxidoreductase); experiment: NADH:decylubiquinone oxidoreduction by isolated complex I; assay type: biochemical, Bos taurus (bovine); conditions: for IC50: isolated bovine complex I, 32°C, pH 7.2, 200 μM NADH, 200 μM decylubiquinone, 95% confidence intervals; for inhibition of complex I catalysis at extrapolated mitochondrial concentration: 10 mM metformin, 200 μM phenformin in mitochondria
T3 construct: from tissue; host or cells: bovine heart mitochondria
Method: Catalysis was initiated by the addition of NADH, following a 2 min pre-incubation, and rates measured as the linear regression of the maximal rate (discarding any initial lag phases). […] Control experiments included NaCl (to maintain the ionic strength) or DMSO.
Experimental values are reported as means±S.E.M. for small sample sizes or as means±S.D. for large sample sizes with only technical error sources. […] Comparisons between samples are marked *P<0.05, **P<0.01 and ****P<0.0001 as determined using an unpaired two-tailed Students t test. Differences between measurements with P>0.05 were considered not significant.

complex I flavin = system: T4, complex I flavin; experiment: H2O2 production (NADH:O2 oxidoreduction) by isolated complex I; assay type: biochemical, bovine; conditions: dose-response
T4 construct: from tissue; host or cells: bovine heart mitochondria (from context)
Method: (§2) NADH:decylubiquinone oxidoreduction was measured using 200 μM NADH and 200 μM decylubiquinone, in 0.075% soya bean asolectin (Avanti Polar Lipids) and 0.075% CHAPS (Merck Chemicals) and quantified by the absorbance of NADH (ε340–380=4.81 mM^−1·cm^−1). Catalysis was initiated by the addition of NADH, following a 2 min pre-incubation, and rates measured as the linear regression of the maximal rate (discarding any initial lag phases). […] Initial rates for the NADH:FeCN (ferricyanide), NADH:HAR [hexaammineruthenium(III)] and NADH:paraquat reactions were measured in 100 μM NADH with 1 mM FeCN (ε420–500=1 mM^−1·cm^−1), 3.5 mM HAR or 200 μM paraquat (ε340–380=4.81 mM^−1·cm^−1). H2O2 formation was followed in 30 μM NADH as the catalase-sensitive horseradish peroxidase-dependent oxidation of 10 μM Amplex Red to resorufin (ε557–620=51.6 mM^−1·cm^−1), with 2 units/ml superoxide dismutase, or by monitoring NADH oxidation. Metformin (Cambridge Bioscience) phenformin and buformin (Santa Cruz Biotechnology) were added from aqueous stock solutions, and cycloguanil (Santa Cruz Biotechnology) and proguanil (Sigma–Aldrich) were in DMSO. Control experiments included NaCl (to maintain the ionic strength) or DMSO.

[4] = system: immunoprecipitated complex I; set-up: method as in PMID 18817800; conditions: previous data; cited from earlier work
complex I [5] = experiment: NADH:FeCN oxidoreduction by complex I from E. coli; assay type: biochemical, Escherichia coli; conditions: 200 mM metformin
Method: as §2

143B osteosarcoma cells = experiment: Rotenone-sensitive OCR of 143B cells (Seahorse); assay type: cell-based, human; conditions: 6 h exposure, read-out: cellular IC50, rotenone-sensitive OCR
Method: Cells [143B (cell line 8303 from the A.T.C.C.) and Hep G2 (cell line 85011430 from The Health Protection Agency)] were grown on DMEM (Dulbecco's modified Eagle's medium) supplemented with 10% FBS (Thermo Fisher Scientific) and 100 units/ml penicillin and 100 μg/ml streptomycin at 37°C in 5% CO2. Per well, 3×10^4 or 1.5×10^4 cells were plated into XF24 or XF96 (Seahorse Bioscience) plates respectively, and incubated for 12 h at 37°C in 5% CO2. The medium was exchanged for assay buffer containing DMEM, 4.5 g/l glucose, 1 mM pyruvate, 32 mM NaCl, 2 mM GlutaMAX, 15 mg/l Phenol Red and 20 mM Hepes (pH 7.4) and the cells placed in a CO2-free incubator at 37°C for 60 min. OCRs (oxygen consumption rates) and ECARs (extracellular acidification rates) were measured in a Seahorse extracellular flux analyser; 200 nM rotenone was used to inhibit complex I where stated. To calculate the normalized rotenone-sensitive OCR rates, the rotenone-insensitive rates (determined at the end of the experiment) were subtracted and the traces normalized to 100% before biguanide addition. ECAR data were normalized to 100% before biguanide addition. For the permeabilized cell experiments, cells were seeded at 3.5×10^3 per well and incubated for 62 h at 37°C in 5% CO2. The medium was exchanged for assay buffer containing 3 nM plasma membrane permeabilizer ‘PMP’ (Seahorse Biosciences), 10 mM pyruvate, 10 mM malate, 220 mM mannitol, 70 mM sucrose, 10 mM KH2PO4, 5 mM MgCl, 1 mM EGTA, 0.2% fatty-acid-free BSA and 2 mM Hepes (pH 7.4) at 37°C. Cells were incubated for 15 min and a baseline was recorded for normalization, then the test compounds were added. […]
Biguanides are positively charged so they are expected to accumulate in the mitochondria of cells in response to the potential difference across the inner membrane (the potential difference is the ‘charge’ component of the protonmotive force). […] The OCRs were normalized to their values before biguanide addition, and monitored throughout the experiment; rotenone-insensitive rates were subtracted, and all rates after 6 h compared with a biguanide-free control. […]

[6] = Typical blood serum levels; assay type: in vivo; conditions: 1000-fold accumulation at combined membrane potentials of 180 mV
complex I [7] = experiment: NADH:FeCN oxidoreduction by complex I from P. pastoris; assay type: biochemical, Pichia pastoris; conditions: 200 mM metformin
Method: as §2

complex I flavin site = system: T5, complex I flavin site; experiment: NADH-dependence of NADH:FeCN catalysis by isolated bovine complex I; assay type: biochemical; conditions: 100 mM metformin
T5 construct: from tissue; host or cells: bovine heart mitochondria

complex I [8] = experiment: NADH:decylubiquinone oxidoreduction by isolated complex I from yeast; assay type: biochemical, Pichia pastoris; conditions: complex I from the yeast P. pastoris; read-out: IC50, inhibition of complex I
Method: (§3) Complex I was prepared from Bos taurus (bovine) heart mitochondria, Pichia pastoris and Escherichia coli, as described previously. SMPs (submitochondrial particles) and mitochondrial membranes were prepared from bovine heart mitochondria. Complex IV was a by-product from the preparation of complex I; it elutes from the Q-Sepharose column at ~250 mM NaCl. Mitochondria were isolated from rat liver by the method of Chappell and Hansford. F1FO-ATP synthase and the F1 domain were isolated from bovine mitochondria as described previously using a HiLoad Superdex 200-PG column and omitting azide and 2-mercaptoethanol.
(§4) NADH:decylubiquinone oxidoreduction was measured using 200 μM NADH and 200 μM decylubiquinone, in 0.075% soya bean asolectin (Avanti Polar Lipids) and 0.075% CHAPS (Merck Chemicals) and quantified by the absorbance of NADH (ε340–380=4.81 mM^−1·cm^−1). Catalysis was initiated by the addition of NADH, following a 2 min pre-incubation, and rates measured as the linear regression of the maximal rate (discarding any initial lag phases). […] Initial rates for the NADH:FeCN (ferricyanide), NADH:HAR [hexaammineruthenium(III)] and NADH:paraquat reactions were measured in 100 μM NADH with 1 mM FeCN (ε420–500=1 mM^−1·cm^−1), 3.5 mM HAR or 200 μM paraquat (ε340–380=4.81 mM^−1·cm^−1). […]

[9] = set-up: method as in PMID 12889529; conditions: cited from earlier work
complex I [10] = experiment: NADH:decylubiquinone oxidoreduction by isolated complex I from bacterium; assay type: biochemical, Escherichia coli; conditions: read-out: IC50, inhibition of complex I; complex I from the bacterium E. coli
Method: as §3, §4

complex I in SMPs = system: T6, complex I in SMPs; experiment: NADH oxidation by SMPs; assay type: biochemical, bovine; conditions: 100 mM metformin added 10 min after initiation by 200 μM NADH
T6 construct: from tissue; host or cells: SMPs from bovine heart mitochondria

[11] = system: isolated rat skeletal muscle mitochondria; experiment: H2O2 production by isolated rat skeletal muscle mitochondria (resorufin fluorescence); conditions: glutamate and pyruvate, ATP and rotenone
Source text: . However, these extramitochondrial concentrations are very high and we are unable to control the intramitochondrial concentration or conditions, so the results are not quantitatively meaningful. […]

143B and Hep G2 cells = experiment: Accumulation into mitochondria of cultured cells inferred from complex I inhibition; assay type: cell-based, human; conditions: 6 h
Source text: as §1, with “control. […]. […] […].” for “control.”

F1FO-ATPase = biological target: T7, F1FO-ATPase; experiment: ATP hydrolysis by F1FO-ATPase in SMPs (coupled assay); assay type: biochemical; conditions: bovine SMPs
T7 construct: from tissue; host or cells: SMPs from bovine heart mitochondria

[12] = biological target: T8, isolated ATPase (F1FO-ATP synthase); experiment: ATP hydrolysis by isolated intact ATPase; assay type: biochemical, bovine; conditions: isolated intact enzyme
T8 construct: from tissue; host or cells: bovine mitochondria
Method: as §3

SMILES: CCCCNC(=N)NC(=N)N [buformin]
- effect on succinate-driven ATP synthesis (ATP synthase): No inhibition
- inhibition of ATP hydrolysis by the isolated F1 domain [1]: 74±3%

SMILES: CC1(C)N=C(N)N=C(N)N1c1ccc(Cl)cc1 [cycloguanil]
- effect on succinate-driven ATP synthesis (ATP synthase): neither cycloguanil or proguanil affect ATP synthesis
- effect on rotenone-sensitive OCR or ECAR [2]: neither proguanil nor cycloguanil exhibited any substantial effect
- IC50 (complex III): 2480 ± 210 µM
- inhibition of ATP hydrolysis by the isolated F1 domain [1]: no significant inhibition

SMILES: N=C(N)N [guanidinium]
- IC50 [3]: 25800 ± 3900 µM
- H2O2 production rate maximum (complex I flavin): 386±34%

SMILES: CN(C)C(=N)N=C(N)N [metformin]
- IC50 [4]: 66000 µM
- NADH:FeCN reaction rate (stimulation) (complex I [5]): 144±2%
- IC50 (143B osteosarcoma cells): 240 ± 10 µM
- IC50 (143B osteosarcoma cells; Homo sapiens, 143B, 6 h): 237 ± 13 µM
- effect on succinate-driven ATP synthesis (ATP synthase): No inhibition
- mitochondrial concentration extrapolated from serum [6]: 10 mM
- NADH:FeCN reaction rate (stimulation) (complex I [7]): 166±1%
- increase of the dissociation constant for NADH to the reduced flavin (complex I flavin site): ~ 20 times
- KNADHRed (dissociation constant for NADH binding to the reduced flavin) (complex I flavin site; control 11 μM, data fit): 181 µM
- inhibition of complex I catalysis at extrapolated mitochondrial concentration [3]: ~ 25%
- mode of inhibition of complex I ([3]; Michaelis-Menten analysis towards decylubiquinone): reversible non-competitive inhibitor
- IC50 [3]: 19400 ± 1400 µM
- H2O2 production rate maximum (complex I flavin): 338±41%
- IC50 [2]: 330 ± 20 µM
- IC50 ([2]; Homo sapiens, HepG2, 6 h): 325 ± 25 µM
- IC50 (complex I [8]): 22600 ± 4300 µM
- serum concentration [9]: ~ 10 μM
- IC50 (complex I [10]): 60700 ± 8500 µM
- time for inhibition to attain the same level when added during catalysis (complex I in SMPs): more than 30 min
- stimulation of H2O2 production rate ([11]; 50 mM metformin): 270±34%
- stimulation of H2O2 production rate ([11]; 100 mM metformin): 360±35%

SMILES: [H]/N=C(/N)N/C(=N/[H])NCCc1ccccc1 [phenformin]
- IC50 (143B osteosarcoma cells; Homo sapiens, 143B, 6 h): 3.81 ± 1.12 µM
- effect on succinate-driven ATP synthesis (ATP synthase): inhibition of synthesis is observed at higher concentrations
- mitochondrial concentration extrapolated from serum [6]: 0.2 mM
- inhibition of complex I catalysis at extrapolated mitochondrial concentration [3]: ~ 25%
- IC50 ([2]; Homo sapiens, HepG2): 3.8 ± 0.38 µM
- time for uptake to reach completion ([2]; concentration equal to complex I IC50/10 (0.04 mM phenformin)): approximately 6 h
- inhibition of ATP hydrolysis by the isolated F1 domain [1]: 32±7.5%
- serum concentration [9]: ~ 200 nM
- accumulation (isolated complex I IC50 versus cellular IC50) (143B and Hep G2 cells): 120 fold

SMILES: [H]/N=C(\N/C(=N/[H])Nc1ccc(Cl)cc1)NC(C)C [proguanil]
- effect on succinate-driven ATP synthesis (ATP synthase): neither cycloguanil or proguanil affect ATP synthesis
- effect on rotenone-sensitive OCR or ECAR [2]: neither proguanil nor cycloguanil exhibited any substantial effect
- inhibition of ATP hydrolysis by the isolated F1 domain [1]: no significant inhibition
- IC50 (F1FO-ATPase): 6.8 ± 0.7 µM
- IC50 [12]: 0.67 ± 0.1 µM

Source: article PMC4148174 (Biochemical Journal, 2014)
